Laboratory results reported in PubChem BioAssay (NCI).
Values joined by “and” are separate entries in the source; they are usually repeats but may differ in a detail not shown here. Equal entries are not always repeated.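 Protocol summary: plate cells (96-well), add compound at 5 concentrations, incubate 48 h, interpolate endpoints linearly. TGI marks complete inhibition of growth.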

What was measured:
Experiment in all cases: NCI tumour cell line growth inhibition, 48 h
[1] = tested on: A549 NSCLC
[2] = tested on: HOP-62 NSCLC
[3] = tested on: IGROV1 ovarian
[4] = tested on: KM12 colon
[5] = tested on: MDA-N
[6] = tested on: OVCAR-5 ovarian
[7] = tested on: RXF 393 renal
[8] = tested on: TK-10 renal
[9] = tested on: UO-31 renal
[10] = tested on: A498 renal

SMILES | TGI [1] | TGI [2] | TGI [3] | TGI [4] | TGI [5] [µM] | TGI [6] | TGI [7] | TGI [8] | TGI [9] | TGI [10]
C#CC(C)(C)Oc1cc(OC)c2c(=O)c3ccccc3n(C)c2c1 | 74.1 µM | > 100 µM | 45 µM | 37.8 µM | 31.1 | 98.3 µM | 84.8 µM | > 100 µM | 22.5 µM | 
COc1cc(C2C(Cl)C(=O)N2c2ccc(Br)cc2)cc(I)c1O (stereo unspecified) | > 100 µM | > 100 µM | 24.6 µM | > 100 µM | > 100 | > 100 µM |  | > 100 µM | > 100 µM | > 100 µM
c1ccc2c(c1)CC1c3[nH]c4ccccc4c3CCN21 (stereo unspecified) | > 10 µM | > 10 µM | > 10 µM | > 10 µM | > 10 | > 10 µM | > 10 µM | > 10 µM | > 10 µM | 
CC(C)(CN1CCCCC1)C(=O)CC(SCCS(=O)(=O)O)c1ccc(Br)cc1 (stereo unspecified) | 4.78 µM | 18 µM | 4.56 µM | 5.36 µM |  | 9.34 µM | 2.71 µM | 7.97 µM | 2.99 µM | 5.73 µM
O=C1CCSSCCC(=O)Nc2ccccc2N1 | > 100 µM | > 100 µM | > 100 µM | > 100 µM |  | > 100 µM | > 100 µM | > 100 µM | > 100 µM | > 100 µM
Cc1nc2c(n1Cc1ccc(Cl)cc1)C(=O)c1ccccc1C2=O | > 75 µM | > 75 µM | > 75 µM | > 75 µM |  |  | > 75 µM | > 75 µM | > 75 µM | 
CN(C)c1ccc(-c2nc(-c3cc4c(ccc5ccccc54)oc3=O)cs2)cc1 | > 100 µM | > 100 µM | > 100 µM | > 100 µM | > 100 | > 100 µM | > 100 µM | > 100 µM | > 100 µM | 
O=C(Cc1nc2ccc(C(=O)c3ccccc3)cc2[nH]c1=O)C(=O)Nc1ccccc1[N+](=O)[O-] | > 100 µM |  | > 100 µM | > 100 µM | > 100 | > 100 µM | > 100 µM | > 100 µM | > 100 µM | > 100 µM
Cc1ccc(Nc2nc(=O)[nH]c(=O)[nH]2)cc1N | > 100 µM | > 100 µM | > 100 µM | > 100 µM | > 100 | > 100 µM |  | > 100 µM |  | > 100 µM
COc1cc(C(=O)Nc2nnc(S(N)(=O)=O)s2)cc(OC)c1OC | > 100 µM | > 100 µM |  | > 100 µM | > 100 | > 100 µM | > 100 µM | > 100 µM | > 100 µM | 
Cc1ccc(S(=O)(=O)C(C#N)c2nc3ccccc3nc2-n2cccn2)cc1 (stereo unspecified) | > 100 µM |  | > 100 µM | > 100 µM |  | > 100 µM |  | > 100 µM | > 100 µM | 
CCCCCCCCCCCCCCCCOCC(CC(F)(F)P(=O)(O)O)OC(C)=O (stereo unspecified) | > 50 µM | > 50 µM | > 50 µM | > 50 µM | > 50 | > 50 µM |  | > 50 µM | > 50 µM | > 50 µM
O=C(c1cccs1)N(C(=S)N1CCN(c2ccccc2)CC1)c1ccccc1 | > 100 µM | > 100 µM | > 100 µM | > 100 µM |  | > 100 µM | > 100 µM | > 100 µM | > 100 µM | 
O=C1NC(=O)/C(=C\c2ccncc2)N1 | > 100 µM | > 100 µM | > 100 µM | > 100 µM | > 100 | > 100 µM |  | > 100 µM | > 100 µM | 
CSc1c(C(C)=O)c(O)n(-c2ccc(Cl)cc2)c(=O)c1C#N | > 100 µM |  |  | > 100 µM | > 100 | > 100 µM | > 100 µM | > 100 µM | 84.6 µM | 93.5 µM
NC1=NS(=O)(=O)N=C(N)C1=Cc1ccc([N+](=O)[O-])o1 | > 100 µM |  | 32.1 µM | 34.5 µM |  | 32.9 µM | 32.8 µM | 32.6 µM | 31.8 µM | 
COc1ccc(/C=N/Nc2[nH]c(=S)nc3[nH]ncc23)cc1 | > 100 µM | 77.9 µM | 68.2 µM | > 100 µM |  | > 100 µM | > 100 µM | 65.9 µM | > 100 µM | > 100 µM
Oc1ccc(-c2c3c(nc4c2CCc2ccc(Br)cc2-4)-c2cc(Br)ccc2CC3)cc1 | 40.8 µM | 33.6 µM | 30.7 µM | 42.5 µM | 40.7 | 40.6 µM |  | 45.4 µM | 38.4 µM | 48.6 µM

SMILES | TGI [1] | TGI [2] | TGI [3] | TGI [4] | TGI [5] [µM] | TGI [6] | TGI [7] | TGI [8] | TGI [9] | TGI [10]
O=C1CCC2(CC1)Cc1ccccc1C2O (stereo unspecified) | > 100 µM | > 100 µM | > 100 µM | > 100 µM | > 100 | > 100 µM |  | > 100 µM | > 100 µM | 
COc1ccc(CNc2nc(NCc3ccc(OC)cc3)nc(NC3CCCCC3)n2)cc1 | 5.31 µM | > 100 µM | 6.22 µM | 5.47 µM | > 100 | > 100 µM |  | 4.11 µM | 96.6 µM | > 100 µM
Oc1c2cccc1Cc1cccc3c1OCCOCCOCCOCCOc1c(cccc1Cc1cccc(c1O)C3)C2 | > 100 µM | > 100 µM | > 100 µM | > 100 µM |  | > 100 µM | > 100 µM | > 100 µM | > 100 µM | > 100 µM
O=C1c2ccccc2NC2C(O)c3ccccc3N12 (stereo unspecified) | 61.5 µM | > 100 µM | > 100 µM | > 100 µM |  | > 100 µM | > 100 µM | > 100 µM | > 100 µM | 37.9 µM
Cc1cc(S(=O)(=O)Nc2n[nH]c(Nc3ccccc3)n2)c(S)cc1Cl | > 10 µM | > 10 µM | > 10 µM | > 10 µM |  | > 10 µM | > 10 µM | > 10 µM | > 10 µM | > 10 µM
CCOC(=O)CCC1(C(=O)OC)CCCC1=O (stereo unspecified) | > 100 µM | > 100 µM | > 100 µM | > 100 µM |  | > 100 µM | > 100 µM | > 100 µM | > 100 µM | > 100 µM
COc1ccc(N2C(=O)C3c4[nH]c5ccc(C)cc5c4C4CCC(C(C)C)CC4C3C2=O)cc1 (stereo unspecified) | > 100 µM | > 100 µM | > 100 µM | > 100 µM | > 100 | > 100 µM |  | > 100 µM | > 100 µM | > 100 µM
CC1=NN(C(=O)CC(=O)Nc2cccc(Cl)c2)C(=O)C1N=Nc1ccc(S(N)(=O)=O)cc1 (stereo unspecified) | > 100 µM | > 100 µM | > 100 µM | > 100 µM |  | > 100 µM | > 100 µM | > 100 µM | > 100 µM | > 100 µM
O=c1[nH]c(=O)n(C2CC(O)C(CO)O2)cc1C#Cc1ccc(C(F)(F)F)cc1 (stereo unspecified) | > 100 µM | > 100 µM | > 100 µM | > 100 µM |  | > 100 µM | > 100 µM | > 100 µM | > 100 µM | 
C/C(=N\N(C)C)C(CN(C)C)C(c1ccccc1)c1c(O)c2ccccc2oc1=O (stereo unspecified) | > 100 µM |  | > 100 µM | > 100 µM |  | > 100 µM | > 100 µM | > 100 µM |  | 
CC1(C)CC(=O)C(/C=N/c2nc(-c3ccc(Br)cc3)cs2)=C(O)C1 | > 100 µM | > 100 µM | > 100 µM | > 100 µM | > 100 | > 100 µM |  | 40.2 µM | 73.1 µM | 
O=C1CCC2(CCC(=O)NC2=O)C(=O)N1 | > 100 µM | > 100 µM | > 100 µM | > 100 µM |  |  | > 100 µM | > 100 µM | > 100 µM | 
c1ccc(C2=NN3CN(N2)c2ccccc2OCCCOc2ccccc23)cc1 | > 100 µM | > 100 µM | > 100 µM | > 100 µM |  | > 100 µM | > 100 µM | > 100 µM | > 100 µM | 
Brc1ccc(N2C[N+](c3ccc(Br)cc3)=NC(c3ccccc3)=N2)cc1 | 33.6 µM and > 100 µM | 31.2 µM and > 100 µM | 29.1 µM and > 100 µM | 28.1 µM and > 100 µM |  | 30.2 µM and > 100 µM | 37.7 µM and > 100 µM | 38 µM and > 100 µM | 27.6 µM and > 100 µM | 32.8 µM and > 100 µM
C=CCc1c(O)c2ccccc2[nH]c1=O | > 100 µM | > 100 µM | > 100 µM | > 100 µM | > 100 | > 100 µM |  | > 100 µM | > 100 µM | > 100 µM
COc1cc(C2SCC(=O)N2NC(=O)c2ccc(NC(C)=O)cc2)cc(OC)c1OC (stereo unspecified) | > 100 µM | > 100 µM | > 100 µM | > 100 µM |  | > 100 µM | > 100 µM | > 100 µM | > 100 µM | > 100 µM
CC1=NN(c2nc(N)nc(/C(C#N)=C/c3ccncc3)n2)C(C)(C)C1 |  | > 100 µM | > 100 µM | > 100 µM |  |  | > 100 µM | > 100 µM | > 100 µM | > 100 µM
Cc1ccc2c(c1)c(=O)c1c(NCCN(C)C)ccc3nnn2c31 | 13.6 µM | 21.5 µM | 23 µM | 11.7 µM |  | 12.4 µM | 16.9 µM | 28.3 µM | 23.9 µM | 12 µM
